The source of these data is patent US5888781A, “Method for increasing the hydrolytic activity of starch hyrdolases” (University of Maryland Baltimore County, priority 1997, dated 1999).

Assay [1] deals with T1, GA from A. awamori (Aspergillus awamori, UniProt P69327).
T1 construct: made in house; host or cells: Saccharomyces cerevisiae
The assay can be described thus: GA activity assay: maltose hydrolysis in the presence of cosolvents. Type of assay: biochemical. As to conditions: maltose hydrolysis by GA at 45° C.; for Corresponding cosolvent concentration at maximum percent increase in kcat: 0.05M sodium acetate buffer pH 4.5, 20 mM maltose; for kcat: at cosolvent concentration of maximum increase. As to the method:
GA was produced in Saccharomyces cerevisiae and obtained, as described by Natarajan et al, Biochem., 35:3050-3058 (1996).
Kinetic assays were performed either at 45° C. or at 60° C., in 0.05M sodium acetate buffer (pH 4.5), using a substrate, i.e., maltose, concentration of 20 mM. The substrate concentration was sufficiently above the Km value so that the measured rate was directly proportional to kcat. The enzyme concentrations used in the reaction mixtures were 35 μg/ml and 3.5 μg/ml for the 45° C. and 60° C. experiments, respectively.
(§1) The cosolvent solutions were prepared from a concentrated cosolvent mixture by dilution to the final concentrations ranging from 0-90% (w/v), into the appropriate reaction buffer solution. The buffer solutions were titrated for pH prior to addition of cosolvent. All of the solutions were equilibrated at 45° C. (or 60° C.) in a water bath, and the reaction was started by the addition of a 25 μl aliquot of enzyme. Reaction aliquots were removed at various times, and the reaction was stopped by the addition of 2.5M Trizma base (pH 7.0). All of the reactions were performed in duplicate. The rates were determined by measuring the concentration of the released glucose by the glucose oxidase method, using the Glucose Oxidase Kit (Sigma), as modified for microtiter plate assays, at OD450 nm (Fox et al, Anal. Biochem., 195:93-96 (1991); and Palcic et al, Carbohydr. Res., 250:87-92 (1993)), and using an EL 340 biokinetics reader (BIOTEK Instruments; Winooski, Vt.).
Glucose standards at each of the various cosolvent concentrations were run parallel to each reaction so that any effect of the cosolvents on the glucose assay could be subtracted out.

For assay [2], the target named is T1, GA from A. awamori. In words: Effect of cosolvent solution viscosity on kcat of GA (maltose hydrolysis). It is filed as biochemical. As to conditions: maltose hydrolysis at 45° C.; for Effect of solution viscosity on kcat (in words): PEG200 viscosities up to 14 cp, PEG8000 up to 18 cp. As to the method: Kinetic assays were performed either at 45° C. or at 60° C., in 0.05M sodium acetate buffer (pH 4.5), using a substrate, i.e., maltose, concentration of 20 mM. The substrate concentration was sufficiently above the Km value so that the measured rate was directly proportional to kcat.
as §1
All buffers of various cosolvent concentrations were filtered before use. Viscosity and density measurements were performed using an Ostwald Capillary Viscometer at 45° C. The densities of the various buffer solutions were obtained by replicate weighing of one milliliter volumes of buffer.
As discussed above, if product release is the rate-limiting step in the GA mechanism, there should be a dependence of the kcat value on solution viscosity. If a conformational change associated with the product release is limiting the reaction rate, the relationship between kcat and viscosity, μ, should be μ^-δ (Demchenko et al, supra). This relationship is based on the Kramers' theory (Kramers, supra) which postulates that diffusional motion in a random field controls the rate at which the enzyme complex will pass over the activation energy barrier. […] This relationship is based on the theory that the dissociating product must have a certain minimal kinetic energy to escape some characteristic volume in the enzyme active site. Once the product has exited from the characteristic volume, the product has a very low probability of reassociating. If the former relationship is valid, plots of ln(kcat) vs ln(μ) for the various cosolvents should be linear with a slope of -δ, whereas if the latter is true plots of ln(kcat) vs (μ)^2 should be linear with a slope corresponding to -γ.

T1 sequence (P69327 25-640): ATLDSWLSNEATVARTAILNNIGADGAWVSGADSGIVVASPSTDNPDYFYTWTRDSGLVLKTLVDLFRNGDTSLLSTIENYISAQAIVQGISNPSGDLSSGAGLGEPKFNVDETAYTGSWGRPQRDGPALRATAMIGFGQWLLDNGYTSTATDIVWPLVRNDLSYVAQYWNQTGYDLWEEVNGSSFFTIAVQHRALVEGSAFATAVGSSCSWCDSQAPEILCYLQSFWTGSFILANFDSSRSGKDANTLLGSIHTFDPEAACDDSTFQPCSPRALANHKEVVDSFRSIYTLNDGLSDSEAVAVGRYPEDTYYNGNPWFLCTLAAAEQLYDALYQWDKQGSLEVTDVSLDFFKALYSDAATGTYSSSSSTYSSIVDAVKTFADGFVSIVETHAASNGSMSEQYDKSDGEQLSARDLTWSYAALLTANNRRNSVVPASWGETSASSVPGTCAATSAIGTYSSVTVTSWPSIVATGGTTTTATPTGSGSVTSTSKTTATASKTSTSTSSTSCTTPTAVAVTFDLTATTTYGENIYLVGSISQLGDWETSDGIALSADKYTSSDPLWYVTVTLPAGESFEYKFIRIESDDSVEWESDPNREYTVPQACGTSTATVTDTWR

Take `OCCO` [EG, ethylene glycol]: in assay [1], the “Cosolvent concentration of peak (largest) increase in kcat” value is “around 50 % (w/v)”, the “Maximum percent increase in kcat over control value without cosolvent” value is 32%, the “Corresponding cosolvent concentration at maximum percent increase in kcat” value was determined as 50% and the kcat was 12.4 s⁻¹. For the same compound, in assay [2], the “Solution viscosity at which GA activity starts to decrease significantly” value is recorded as “around 3.5 cp” and the “Effect of solution viscosity on kcat (in words)” value is listed as “substantially decreased kcat”. Further, the “Slope of plot of ln(kcat) vs (μ)^2” value in assay [2] (FIGS. 4A-4G) is reported as -0.06.

For `OCC(O)CO` [Glycerol, glycerol, reference compound], in assay [1], the “Maximum percent increase in kcat over control value without cosolvent” value stood at 11%, the “Corresponding cosolvent concentration at maximum percent increase in kcat” value amounted to 1.0% and the kcat stood at 10.4 s⁻¹. In assay [1] (FIGS. 1A-1G), the “Effect of cosolvent on kcat (in words)” value is recorded as “only a minor increase in kcat”. In addition, in assay [2], the “Solution viscosity at which GA activity starts to decrease significantly” value is “around 3.5 cp” and the “Effect of solution viscosity on kcat (in words)” value is “substantially decreased kcat”.

Broadly, the kcat is the maximal rate divided by the concentration of active sites.
